Test results as given in patent publication US11401255B2, “Small molecule activators of Parkin enzyme function” (Mayo Foundation for Medical Education and Research, priority 2016, dated 2022).
“Also recorded” adds a separate entry of the source. Where two headings read alike, the source gives them in different places.

Key:
[1] = test system: wp2[pKM101]+wp2 uvrA mixed 1:2; assay: Ames Test, E. coli
From the text: (§1) The test used amino acid-dependent strains of Salmonella typhimurium and Escherichia coli to detect point mutations which involved substitution, addition or deletion of one or a few DNA base pairs. Point mutations were introduced in the histidine (Salmonella typhimurium) or the tryptophan (Escherichia coli) operon, making the tester strains incapable of producing these amino acids. The test detected mutations that revert the mutations present in the bacteria, restoring the functional capability to synthesize histidine or tryptophan. The revertant bacteria were detected by the ability to grow in the absence of the amino acid required by the parent test strain. A mutagenic potential of a tested compound was assessed by exposing these bacterial strains to different concentrations of the compounds and estimating number of revertant colonies grown in the absence (trace quantities) of the amino acid.
(§2) DMSO was used as the negative control.
(§3) For each experiment, tester strain cultures were grown overnight in Oxoid nutrient broth #2 at 37° C. with shaking at 235 rpm to a density of 1-2×10^9 colony forming units/mL (OD540˜2).
(§4) The tester strain (10 μL of night culture) was mixed with the test agent (10 µL of the DMSO stock) and GM liquid medium (30 μL). The obtained mixture was incubated at room temperature for 5 min in a sterile 1.5 mL tube. Then, to the tube was added 200 μL of molten top agar stored at 44° C. to prevent solidifying. After mixing with a pipette, the mixture was poured onto the surface of a GM agar plate (2.0 mL of GM agar per plate). After solidifying the top agar, the plate was inverted and incubated at 37° C. for 48 hours. Then, results were expressed as number of revertant colonies per plate.

TA 1535 = test system: TA 1535
From the text: as §1, §2, §3, §4

TA 98 = assay: Ames Test, strain TA 98
From the text: as §1, §2, §3, §4

Parkin = Parkin (Homo sapiens (Human), UniProt O60260); assay: Parkin activation in human primary fibroblasts (western blot); type: cell-based; details: for MFN1/2 degradation and pSer65-Ub levels: 5 μM before low dose CCCP (3.5 μM); for MFN1 ubiquitylation or pSer65-Ub signals, compound treatment alone: different concentrations, 2 h, absence of CCCP
Sequence of Parkin (O60260 whole entry): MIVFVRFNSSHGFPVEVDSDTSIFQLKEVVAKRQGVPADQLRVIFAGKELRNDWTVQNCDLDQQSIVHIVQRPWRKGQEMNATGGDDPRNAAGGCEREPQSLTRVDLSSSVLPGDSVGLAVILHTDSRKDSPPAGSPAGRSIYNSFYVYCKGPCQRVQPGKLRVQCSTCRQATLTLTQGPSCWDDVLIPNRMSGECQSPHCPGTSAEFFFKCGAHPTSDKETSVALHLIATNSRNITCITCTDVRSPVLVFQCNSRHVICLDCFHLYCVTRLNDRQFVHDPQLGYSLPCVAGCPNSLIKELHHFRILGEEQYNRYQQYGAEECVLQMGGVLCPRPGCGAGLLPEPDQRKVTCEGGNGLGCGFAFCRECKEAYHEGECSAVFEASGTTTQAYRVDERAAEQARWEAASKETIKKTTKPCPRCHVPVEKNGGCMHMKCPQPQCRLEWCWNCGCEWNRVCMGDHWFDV
Experimental: FIGS. 15A-15H show Parkin activation in primary fibroblasts, neuronal cells and in vitro. Positive control (PC) cells were treated with DMSO and 10 μM of CCCP. Negative control (NC) cells were treated with 3.5 μM CCCP, some cells were left untreated (−). […] Vinculin was used as loading control. […] FIG. 15C: Human fibroblasts were directly converted to neurons and treated as in FIG. 15B. […] Beta III tubulin confirmed successful conversion of fibroblasts to iNeurons. FIG. 15D: Rat PC12 cells were treated as in FIG. 15A. Western blots show enhanced ubiquitylation of MFN2 and TOM70, and robust pSer65-Ub induction similar to PC, but not NC cells. FIG. 15E: In vitro E2 discharge assay. Recombinant Parkin was pre-incubated with compound 4 or DMSO as control and was mixed to Ub-loaded UbcH7. […] Control reactions were performed without PINK1 or Parkin. FIG. 15F: In vitro assay with isolated mitochondria from untreated or CCCP-treated HeLa cells lacking Parkin. Mitochondrial preparations were mixed with recombinant Parkin, E1, UbcH7, ATP and either compound 4 or DMSO as a control and incubated for the indicated times. […] Control samples were incubated in reaction mix without Parkin. FIG. 15G: Protein melting was performed with 50 ng purified Parkin mixed with SYPRO orange and DMSO as control or 500 nM compound 4. […] FIG. 15H: Statistical analysis of three independent experiments as performed in FIG. 15G. Shown in the average value+/−SD (unpaired, two-sided t-test; *** p<0.0005).
FIG. 16A: Quantification of pSer65-Ub signal using sandwich ELISA from six independent experiments performed in human fibroblast treated as described in FIG. 15A. Shown in the average−/+SD. One-way ANOVA with Tukey's posthoc test (*** p<0.0005). FIG. 16B: Human primary fibroblasts were treated with different concentrations of all five compounds (1, 2, 3, 4, and 31) for 2 h. […] Different CCCP concentrations were used as positive control. FIG. 16C: Rat PC12 cells were pretreated with 5 μM of the compounds for 2 h and then treated with low dose of CCCP (3.5 μM). Control cells were treated with DMSO and either 10 μM CCCP (PC) or 3.5 μM (NC). Some cells received no CCCP (−). […] The PINK1/Parkin product pSer65-Ub was induced by all five compounds upon low dose treatment and in positive controls. FIG. 16D: PC12 cells were differentiated by treatment with NGF (NGF+). Some cells were left undifferentiated (NGF−). Cells were treated with 5 μM of compounds or DMSO as indicated. 2 h later, low dose CCCP (3.5 μM) was added to cells treated with test compounds. DMSO controls were either treated with 3.5 μM CCCP (NC) or 10 μM CCCP (PC). Some cells were not treated with CCCP (−). Western blots probed with antibodies against MFN1 show degradation in cells treated with compounds and in the positive control. Some degradation can also be observed in the negative control. […] Beta III tubulin was used to confirm successful differentiation. Vinculin was used as loading control.
Primary fibroblasts (Cell Applications) were cultured in fibroblast growth medium (FGM): DMEM containing 10% FBS, 1% penicillin-streptomycin and 1% non-essential amino acids. Direct conversion to neurons was performed utilizing short hairpin RNA targeting polypyrimidine-tract-binding protein (shPTB), which affects proneuronal micro-RNA circuits (Xue et al., Cell (2013) 152:82-96. Cells were seeded with 40,000 cells/mL and allowed to adhere overnight. 48 h after transduction with pLKO. 1_shPTB lentivirus, positive cells were selected with 2 μg/mL puromycin in fibroblast growth medium. On day 6 media was changed to FGM containing 10 ng/mL fibroblast growth factor (FGF, Genscript). On day 8, media was changed to differentiation media (DMEM:F12 (Invitrogen), 25 μg/mL insulin, 50 μg/mL transferrin, 0.1 μM putrescine 0.03 μM Na-selenite (all Sigma-Aldrich), and 15 ng/mL FGF) containing 5% FBS. On days 10 and 12 media was replaced with differentiation media containing reduced serum (2% FBS). […]

[2] = 50 μM (row printed 100; conc. column shifted)
[3] = 100 μM (row printed 200; conc. column shifted)
[4] = 200 μM (row printed 0; conc. column shifted)
[5] = TA 98, 200 μM, baseline = mean of negative control + SD

SMILES: O=C(Cn1cnc2c1CCCC2)Nc1ccc(-c2ccccc2)cc1 [Compound 1]
- Fold increase (over baseline) [1, 2]: 0
- Mean ± SD [1, 2]: 0 ± 0 revertant colonies per plate
- Fold increase (over baseline) [1, 3]: 0
- Mean ± SD [1, 3]: 0 ± 0 revertant colonies per plate
- Fold increase (over baseline) [1, 4]: 0
- Mean ± SD [1, 4]: 0 ± 0 revertant colonies per plate
- Fold increase (over baseline) (TA 1535; TA 1535, 50 μM): 0.23
- Mean ± SD (TA 1535; TA 1535, 50 μM): 1 ± 0 revertant colonies per plate
- Fold increase (over baseline) (TA 1535; TA 1535, 100 μM): 0
- Mean ± SD (TA 1535; TA 1535, 100 μM): 0 ± 0 revertant colonies per plate
- Fold increase (over baseline) (TA 1535; TA 1535, 200 μM): 0
- Mean ± SD (TA 1535; TA 1535, 200 μM): 0 ± 0 revertant colonies per plate
- Fold increase (over baseline) (TA 98; TA 98, 50 μM): 0.46
- Mean ± SD (TA 98; TA 98, 50 μM): 1.5 ± 0.7 revertant colonies per plate
- Fold increase (over baseline) (TA 98; TA 98, 100 μM): 0.2
- Mean ± SD (TA 98; TA 98, 100 μM): 0.5 ± 0.7 revertant colonies per plate
- Mean ± SD (TA 98; TA 98, 200 μM): 0 ± 0 revertant colonies per plate
- Fold increase (over baseline) (TA 98; [5]): 0
- MFN1/2 degradation and pSer65-Ub levels (Parkin): enhanced degradation of the substrates MFN1/2 and increase of pSer65-Ub levels; also recorded: strongest effects
- MFN1 ubiquitylation or pSer65-Ub signals, compound treatment alone (Parkin): did not induce MFN1 ubiquitylation or pSer65-Ub signals

SMILES: CC(C)c1nccn1CC(=O)Nc1ccc(-c2ccccc2)cc1 [Compound 2]
- Fold increase (over baseline) [1, 2]: 0.63
- Mean ± SD [1, 2]: 2.5 ± 2.12 revertant colonies per plate
- Fold increase (over baseline) [1, 3]: 0.38
- Mean ± SD [1, 3]: 1.5 ± 0.7 revertant colonies per plate
- Fold increase (over baseline) [1, 4]: 0.5
- Mean ± SD [1, 4]: 2 ± 2.82 revertant colonies per plate
- Fold increase (over baseline) (TA 1535; TA 1535, 50 μM): 0
- Mean ± SD (TA 1535; TA 1535, 50 μM): 0 ± 0 revertant colonies per plate
- Fold increase (over baseline) (TA 1535; TA 1535, 100 μM): 0.68
- Mean ± SD (TA 1535; TA 1535, 100 μM): 3 ± 0 revertant colonies per plate
- Fold increase (over baseline) (TA 1535; TA 1535, 200 μM): 0.23
- Mean ± SD (TA 1535; TA 1535, 200 μM): 1 ± 0 revertant colonies per plate
- Fold increase (over baseline) (TA 98; TA 98, 50 μM): 0.3
- Mean ± SD (TA 98; TA 98, 50 μM): 1 ± 1.41 revertant colonies per plate
- Fold increase (over baseline) (TA 98; TA 98, 100 μM): 0.2
- Mean ± SD (TA 98; TA 98, 100 μM): 0.5 ± 0.7 revertant colonies per plate
- Mean ± SD (TA 98; TA 98, 200 μM): 0.5 ± 0.7 revertant colonies per plate
- Fold increase (over baseline) (TA 98; [5]): 0.2
- MFN1/2 degradation and pSer65-Ub levels (Parkin): enhanced degradation of the substrates MFN1/2 and increase of pSer65-Ub levels
- MFN1 ubiquitylation or pSer65-Ub signals, compound treatment alone (Parkin): did not induce MFN1 ubiquitylation or pSer65-Ub signals

SMILES: CC(C)(C)Sc1ccc(NC(=O)Cn2ccnc2)cc1 [Compound 3]
- Fold increase (over baseline) [1, 2]: 1
- Mean ± SD [1, 2]: 4 ± 0 revertant colonies per plate
- Fold increase (over baseline) [1, 3]: 1.75
- Mean ± SD [1, 3]: 7 ± 0 revertant colonies per plate
- mutagenic activity ([1]; 200 μM): mutagenic activity
- Fold increase (over baseline) [1, 4]: >75
- Mean ± SD [1, 4]: >300 revertant colonies per plate
- Fold increase (over baseline) (TA 1535; TA 1535, 50 μM): 0.34
- Mean ± SD (TA 1535; TA 1535, 50 μM): 1.5 ± 0.7 revertant colonies per plate
- Fold increase (over baseline) (TA 1535; TA 1535, 100 μM): 0
- Mean ± SD (TA 1535; TA 1535, 100 μM): 0 ± 0 revertant colonies per plate
- Fold increase (over baseline) (TA 1535; TA 1535, 200 μM): >34
- Mean ± SD (TA 1535; TA 1535, 200 μM): >150 revertant colonies per plate
- mutagenic activity (TA 1535; TA 1535, 200 μM): mutagenic activity
- Fold increase (over baseline) (TA 98; TA 98, 50 μM): 0.46
- Mean ± SD (TA 98; TA 98, 50 μM): 1.5 ± 0.7 revertant colonies per plate
- Fold increase (over baseline) (TA 98; TA 98, 100 μM): 0.2
- Mean ± SD (TA 98; TA 98, 100 μM): 0.5 ± 0.7 revertant colonies per plate
- Mean ± SD (TA 98; TA 98, 200 μM): >1000 revertant colonies per plate
- mutagenic activity (TA 98; TA 98, 200 μM): mutagenic activity
- Fold increase (over baseline) (TA 98; [5]): >312
- MFN1/2 degradation and pSer65-Ub levels (Parkin): enhanced degradation of the substrates MFN1/2 and increase of pSer65-Ub levels
- MFN1 ubiquitylation or pSer65-Ub signals, compound treatment alone (Parkin): did not induce MFN1 ubiquitylation or pSer65-Ub signals

SMILES: O=C(Cn1ccnc1-c1ccccn1)Nc1ccc(-c2ccccc2)cc1 [Compound 4]
- Fold increase (over baseline) [1, 2]: 0.75
- Mean ± SD [1, 2]: 3 ± 1.41 revertant colonies per plate
- Fold increase (over baseline) [1, 3]: 0.38
- Mean ± SD [1, 3]: 1.5 ± 0.7 revertant colonies per plate
- Fold increase (over baseline) [1, 4]: 1.38
- Mean ± SD [1, 4]: 5.5 ± 2.12 revertant colonies per plate
- Fold increase (over baseline) (TA 1535; TA 1535, 50 μM): 0.23
- Mean ± SD (TA 1535; TA 1535, 50 μM): 1 ± 0 revertant colonies per plate
- Fold increase (over baseline) (TA 1535; TA 1535, 100 μM): 0.34
- Mean ± SD (TA 1535; TA 1535, 100 μM): 1.5 ± 0.7 revertant colonies per plate
- Fold increase (over baseline) (TA 1535; TA 1535, 200 μM): 0
- Mean ± SD (TA 1535; TA 1535, 200 μM): 0 ± 0 revertant colonies per plate
- Fold increase (over baseline) (TA 98; TA 98, 50 μM): 0.46
- Mean ± SD (TA 98; TA 98, 50 μM): 1.5 ± 0.7 revertant colonies per plate
- Fold increase (over baseline) (TA 98; TA 98, 100 μM): 0
- Mean ± SD (TA 98; TA 98, 100 μM): 0 ± 0 revertant colonies per plate
- Mean ± SD (TA 98; TA 98, 200 μM): 0 ± 0 revertant colonies per plate
- Fold increase (over baseline) (TA 98; [5]): 0
- MFN1/2 degradation and pSer65-Ub levels (Parkin): enhanced degradation of the substrates MFN1/2 and increase of pSer65-Ub levels; also recorded: strongest effects
- mitofusin ubiquitylation/degradation and pSer65-Ub signal (Parkin; 5 μM for 2 h before different concentrations of CCCP): increased ubiquitylation/degradation of mitofusins and amplification of the pSer65-Ub signal
- MFN1 ubiquitylation or pSer65-Ub signals, compound treatment alone (Parkin): did not induce MFN1 ubiquitylation or pSer65-Ub signals
